Converted amounts (≈) assume the structure as drawn.
Experiments:
[1] = test system: adult female houseflies; test: whole plant or invertebrate; settings: Musca domestica, topical, 24 h, read-out: Houseflies LD50
Experimental: Toxicity of the compounds of the present invention to houseflies was tested using the technique described by March and Metcalf (Bull. Calif. State Dept. Agr. 38, No. 2, 93-101 [1949]): Solutions of test compounds in acetone were prepared at a range of concentrations. Adult female houseflies (Muscadomesticus) were treated with one drop of acetone solution, applied to the prothorax, using a syringe calibrated to deliver 1.00 ± 0.05 mm^3 drops. Twenty flies were treated at each dosage, each test compound was applied at 8 to 10 dosage levels. Each test was replicated three times. […] A one-inch square of cotton saturated with 40% sugar solution was provided for food in each carton. The cartons of flies were held in a constant temperature chamber at 60° F and 60% relative humidity for 24 hours before mortality counts were made. Flies totally unable to make crawling or walking movements were counted as dead. LD50 values were calculated in the conventional manner.

[2] = test system: larvae of Culex fatigans (mosquitoes); test: Toxicity to mosquitoes, fourth-instar larvae; settings: Culex quinquefasciatus, 24 h, read-out: Mosquitoes LC50
Experimental: Toxicity of the compounds of the present invention to mosquitoes was tested using the technique described by Mulla, Metcalf and Geib (Mosquito News 28, No. 2, 236 [ 1966]): A 1% (w/v) stock solution was prepared by dissolving the test compound in acetone. The appropriate amount of stock solution was added with stirring to 100 ml of tap water and 20-25 fourth-instar larvae of Culex fatigans were placed in the solution. After 24 hours, the counts were taken. Larvae not able to rise to the surface on touch were counted as dead. Each concentration was run in duplicate and each material was run on two or three different days. The average percent mortality was plotted against the logarithm of the concentration (in ppm) and the LC50 value determined by inspection.

[3] = Acute oral toxicity to mice; settings: mouse, in vivo
Experimental: Acute oral toxicity of the compounds of the present invention to mice was determined after the manner of Hollingworth, Fukuto and Metcalf (J. Agr. Food Chem. 15, 235 [ 1967]): Solutions of the compounds at each of a series of concentrations were prepared in olive oil or propylene glycol as solubility required. A dose of 0.25 ml of each solution was administered to each of four female white Swiss mice using the "bolus"-tipped syringe. […] Final mortality determinations were made 48 hours after treatment.

[4] = test system: pea aphid; test: Systemic insecticidal activity, soil-watering technique, pea aphid; format: in vivo, Macrosiphum pisi; settings: Acyrthosiphon pisum, 48 h, 25 ml to soil, infested after 3 days, counted 2 days later, read-out: % Kill, pea aphid, systemic
[5] = test system: plum curculio; test: Residual contact activity (7-day), plum curculio; format: in vivo; settings: Conotrachelus nenuphar, 48 h, surface aged seven days, read-out: % Kill, plum curculio, Residual (7-day)
Experimental: (§1) Initial Contact Activity: One-half gram of test compound was dissolved in 40 ml of acetone and this solution was dispersed in 360 ml of water containing one drop of isooctylphenyl polyethoxyethanol. An aliquot of this solution was diluted with water to provide a solution containing 1250 ppm of active ingredient. […] At this time, the dead and living insects (or mites) were counted and the percent kill was calculated.
(§2) Residual Contact Activity: The residual contact activity of the compounds was determined on the same organisms using the technique described above, except that in each case the treated surface was allowed to dry and was exposed to normal light and air for seven days before introduction of the mites or insects. […]

[6] = test system: granary weevil; test: Initial contact activity, granary weevil; format: in vivo; settings: Sitophilus granarius, 48 hours exposure, read-out: % Kill, granary weevil, Initial
Experimental: as §1

[7] = test system: two-spotted spider mite; test: Initial contact activity, two-spotted spider mite; format: in vivo; settings: Tetranychus urticae, 48 hours exposure, read-out: % Kill, two-spotted spider mite, Initial
Experimental: as §1

[8] = test system: milkweed bug; test: Residual contact activity (7-day), milkweed bug; format: in vivo, Oncopeltus fascinatus; settings: Oncopeltus fasciatus, 48 h, surface aged seven days, read-out: % Kill, milkweed bug, Residual (7-day)
Experimental: as §1, §2

[9] = test system: confused flour beetle; test: Residual contact activity (7-day), confused flour beetle; format: in vivo; settings: Tribolium confusum, 48 h, surface aged seven days, read-out: % Kill, confused flour beetle, Residual (7-day)
Experimental: as §1, §2

[10] = test system: milkweed bug; test: Initial contact activity, milkweed bug; format: in vivo, Oncopeltus fascinatus; settings: Oncopeltus fasciatus, 48 hours exposure, read-out: % Kill, milkweed bug, Initial
Experimental: as §1

[11] = test system: granary weevil; test: Residual contact activity (7-day), granary weevil; format: in vivo; settings: Sitophilus granarius, 48 h, surface aged seven days, read-out: % Kill, granary weevil, Residual (7-day)
Experimental: as §1, §2

[12] = test system: plum curculio; test: Initial contact activity, plum curculio; format: in vivo; settings: Conotrachelus nenuphar, 48 hours exposure, read-out: % Kill, plum curculio, Initial
Experimental: as §1

[13] = test system: southern army worm; test: Systemic insecticidal activity, soil-watering technique, southern army worm; format: in vivo, Prodenia eridania; settings: 156 ppm, 25 ml to soil, infested after 3 days, counted 2 days later
[14] = test system: two-spotted spider mite; test: Residual contact activity (7-day), two-spotted spider mite; format: in vivo; settings: Tetranychus urticae, 48 h, surface aged seven days, read-out: % Kill, two-spotted spider mite, Residual (7-day)
Experimental: as §1, §2

[15] = test system: Mexican bean beetle; test: Residual contact activity (7-day), Mexican bean beetle; format: in vivo; settings: Epilachna varivestis, 48 h, surface aged seven days, read-out: % Kill, Mexican bean beetle, Residual (7-day)
Experimental: as §1, §2

[16] = test system: southern army worm; test: Residual contact activity (7-day), southern army worm; format: in vivo, Prodenia eridania; settings: 1250 ppm, surface aged seven days; 2880 min
Experimental: as §1, §2

[17] = test system: confused flour beetle; test: Initial contact activity, confused flour beetle; format: in vivo; settings: Tribolium confusum, 48 hours exposure, read-out: % Kill, confused flour beetle, Initial
Experimental: as §1

[18] = test system: Mexican bean beetle; test: Systemic insecticidal activity, soil-watering technique, Mexican bean beetle; format: in vivo; settings: Epilachna varivestis, 48 h, 25 ml to soil, infested after 3 days, counted 2 days later, read-out: % Kill, Mexican bean beetle, systemic
[19] = test system: pea aphid; test: Residual contact activity (7-day), pea aphid; format: in vivo, Macrosiphum pisi; settings: Acyrthosiphon pisum, 48 h, surface aged seven days, read-out: % Kill, pea aphid, Residual (7-day)
Experimental: as §1, §2

[20] = test system: pea aphid; test: Initial contact activity, pea aphid; format: in vivo, Macrosiphum pisi; settings: Acyrthosiphon pisum, 48 hours exposure, read-out: % Kill, pea aphid, Initial
Experimental: as §1

[21] = test system: southern army worm; test: Initial contact activity, southern army worm; format: in vivo, Prodenia eridania; settings: 1250 ppm, 48 hours exposure
Experimental: as §1

[22] = test system: two-spotted spider mite; test: Systemic insecticidal activity, soil-watering technique, two-spotted spider mite; format: in vivo; settings: Tetranychus urticae, 48 h, 25 ml to soil, infested after 3 days, counted 2 days later, read-out: % Kill, two-spotted spider mite, systemic
[23] = test system: Mexican bean beetle; test: Initial contact activity, Mexican bean beetle; format: in vivo; settings: Epilachna varivestis, 48 hours exposure, read-out: % Kill, Mexican bean beetle, Initial
Experimental: as §1

SMILES | LD50 [1] | LC50 [2] | LD50 at 48 h [3] | mortality at 156 ppm [4] | mortality at 1250 ppm [5] | mortality at 1250 ppm [6] | mortality at 1250 ppm [7] | mortality at 1250 ppm [8] | mortality at 1250 ppm [9] | mortality at 1250 ppm [10] | mortality at 1250 ppm [11] | mortality at 1250 ppm [12] | % Kill, southern army worm, systemic [13] | mortality at 1250 ppm [14] | mortality at 1250 ppm [15] | % Kill, southern army worm, Residual (7-day) [16] | mortality at 1250 ppm [17] | mortality at 156 ppm [18] | mortality at 1250 ppm [19] | mortality at 1250 ppm [20] | other results
CNC(=O)Oc1cccc2c1OC(C)(C)C2 [Carbofuran, 2,3-dihydro-2,2-dimethyl-7-benzofuranyl methylcarbamate] | ~6.7 mg/kg | 0.052 µg/mL (≈ 0.235 µM) | ~2 mg/kg |  |  |  |  |  |  |  |  |  |  |  |  |  |  |  |  |  | 
CN(C)SN(C)C(=O)Oc1cccc2c1OC(C)(C)C2 [I, 2,3-Dihydro-2,2-dimethyl-7-benzofuranyl (Dimethylaminosulfenyl) (methyl)carbamate] | ~15 mg/kg | 0.027 µg/mL (≈ 0.0911 µM) | 10 to 20 mg/kg | 100% | 5% | 100% | 100% | 100% | 0% | 100% | 63% | 100% | 100% | 3% | 95% | 80% | 100% | 100% | 95% | 100% | % Kill, southern army worm, Initial [21]: 100%; mortality at 156 ppm [22]: 73%; mortality at 1250 ppm [23]: 100%
CN(SN1CCOCC1)C(=O)Oc1cccc2c1OC(C)(C)C2 [II, 2,3-Dihydro-2,2-dimethyl-7-benzofuranyl (Methyl)(morpholinosulfenyl)carbamate] | ~10.5 mg/kg | 0.048 µg/mL (≈ 0.142 µM) | 10 to 20 mg/kg | 100% | 100% | 100% | 97% | 100% | 0% | 100% | 100% | 100% | 100% | 4% | 100% | 83% | 100% | 100% | 100% | 100% | % Kill, southern army worm, Initial [21]: 100%; mortality at 156 ppm [22]: 76%; mortality at 1250 ppm [23]: 100%

Reference: patent publication US4006231A, “N-aminosulfenylated derivatives of carbofuran” (priority 1974, dated 1977)
